Measured values reported in US20230355599A1, “BIOMARKERS FOR CBL, AND COMPOSITIONS AND METHODS FOR THEIR USE” (NURIX THERAPEUTICS, INC., priority 2022, published 2023).

Tested on: phosphorylated ZAP70
Test: Phosphorylated ZAP70 in cynomolgus macaque CD8+ T cells from whole blood in vitro (flow cytometry)
Assay type: cell-based
Settings: Macaca fascicularis, T-cell, whole blood from six cynomolgus macaques, 2 hrs 37° C., 2 μg/mL anti-CD3 & anti-CD28 + crosslinker 60 minutes, read-out: Average mean EC50±standard deviation, phosphorylated ZAP70
Description: To assess these candidate clinical proximal biomarkers of Cbl-b inhibition on T cells, pharmacodynamic analysis was performed. Whole blood was obtained from cynomolgus macaque donors, then incubated with increasing concentrations of Compound 23. The response to Cbl-b inhibition on phosphorylated HS1, ZAP70 and PLCγ2 was measured in CD8^+ T cells using flow cytometry. This technique is highly quantitative and can measure multiple phosphorylation markers in different cell populations within the same sample.
DMSO (Dimethyl sulfoxide) was used to reconstitute Compound 23. Final concentration of DMSO was 0.05% in media for in vitro assays. […]
Stained cells were run on an Attune NxT Acoustic Focusing Flow Cytometer (Thermo Fisher, cat. No. A29004), and data was analyzed using FlowJo (v10.6.1) and GraphPad Prism (v8.00) software. Single lymphocytes were gated for CD8^+ cells (CD45^+/CD8^+) cells, and population frequencies were calculated for each population. The data is quantified by the percent positive. […] As protein becomes phosphorylated the fluorescence increases resulting in a larger fraction of the cells entering that gate. Each population was evaluated for % positive pY759-PLCγ2, pY397-HS1 levels, pY319/Syk (Y352)-ZAP70 levels.

## C[C@H]1CCCN(Cc2cc3c(c(C(F)(F)F)c2)CN(c2cccc([C@]4(c5nncn5C)C[C@@H](C)C4)c2)C3=O)C1 [Compound 23]
  EC50: 173 ± 177 nM
